Series [1] in a line: Hygroscicity by Dynamic Vapor Sorption (DVS) at 25° C. Format: physicochemical. How it is done: Hygroscopicity was investigated by DVS at 25° C., using the following method: […]
Series [2] can be described thus: Approximate solubility in solvents at 25° C. and 50° C. by visual observation. The class given is physicochemical. The settings on record: thermodynamic from solid, read-out: Solubility. The procedure:
The maximum volume of each solvent added was 1 mL. Approximate solubility was determined by visual observation.
Maximum volume of each solvent added was 1 mL. Approximate solubility was determined by visual observation.

Setting [3] is: cycle of 40-0-95-0-45% relative humidity.

As usually defined, the Solubility is the dissolved amount per volume that the medium holds.

≈ marks a conversion by molar mass, not a printed value. Like-named read-outs stand apart in the source and are kept apart here.

Turning to `CCOC(=O)[C@H](C)N[P@](=O)(COCCn1cnc2c(OC)nc(N)nc21)OCc1ccccc1` (single isomer, unassigned) [Compound III, monofumarate], in series [1] (setting [3]), the “Fold increase of retained water content versus Compound II” value is 40 fold and the “XRPD pattern after humidity cycle” value is on record as “lose one of the peaks”. Moreover, in series [1] (exposed to a cycle of 40-0-95-0-45% relative humidity), the Water content retained result is “about 10%”.

For `CCOC(=O)[C@H](C)NP(=O)(COCCn1cnc2c(OC)nc(N)nc21)OCc1ccccc1` (stereo partly drawn) [Compound I, ethyl(((2-(2-amino-6-methoxy-9H-purin-9-yl)ethoxy)methylxbenzyloxy)-phosphoryl)-L-alaninate], the Solubility was more than 100 mg/mL in series [2] (organic solvent or mixture, Acetone, 25° C.); more than 500 mg/mL in series [2] (organic solvent or mixture, Acetone, 50° C.); more than 100 mg/mL in series [2] (organic solvent or mixture, Acetonitrile (ACN), 25° C.); more than 500 mg/mL in series [2] (organic solvent or mixture, Acetonitrile (ACN), 50° C.); more than 100 mg/mL in series [2] (organic solvent or mixture, Dichloromethane (DCM), 25° C.); more than 500 mg/mL in series [2] (organic solvent or mixture, Dichloromethane (DCM), 50° C.). Besides, the Solubility in series [2] (organic solvent or mixture, Ethanol (EtOH), 25° C.) was more than 100 mg/mL; in series [2] (organic solvent or mixture, Ethanol (EtOH), 50° C.) it was more than 500 mg/mL; in series [2] (organic solvent or mixture, Ethyl acetate (EA), 25° C.), more than 100 mg/mL; in series [2] (organic solvent or mixture, Ethyl acetate (EA), 50° C.), more than 500 mg/mL; in series [2] (organic solvent or mixture, Heptanes, 25° C.), less than 2 mg/mL; in series [2] (organic solvent or mixture, Heptanes, 50° C.), less than 10 mg/mL. Moreover, the Solubility in series [2] (organic solvent or mixture, Isopropanol (IPA), 25° C.) is more than 100 mg/mL; in series [2] (organic solvent or mixture, Isopropanol (IPA), 50° C.), more than 500 mg/mL; in series [2] (organic solvent or mixture, Isopropyl acetate (IPAc), 25° C.), more than 100 mg/mL; in series [2] (organic solvent or mixture, Isopropyl acetate (IPAc), 50° C.), more than 500 mg/mL; in series [2] (organic solvent or mixture, Methanol (MeOH), 25° C.), more than 100 mg/mL; in series [2] (organic solvent or mixture, Methanol (MeOH), 50° C.) it was more than 500 mg/mL. Besides, the Solubility in series [2] (organic solvent or mixture, Methyl ethyl ketone (MEK), 25° C.) is more than 100 mg/mL; in series [2] (organic solvent or mixture, Methyl ethyl ketone (MEK), 50° C.), more than 500 mg/mL; in series [2] (organic solvent or mixture, Methyl t-butyl ether (MTBE), 25° C.) it was less than 2 mg/mL; in series [2] (organic solvent or mixture, Methyl t-butyl ether (MTBE), 50° C.) it was less than 10 mg/mL; in series [2] (organic solvent or mixture, Tetrahydrofuran (THF), 25° C.) it was more than 100 mg/mL; in series [2] (organic solvent or mixture, Tetrahydrofuran (THF), 50° C.), 167 to 250 mg/mL (≈ 339 to 508 mM). The Solubility was 20 to 25 mg/mL (≈ 40.6 to 50.8 mM) in series [2] (Water, 25° C.) and 25 to 27 mg/mL (≈ 50.8 to 54.8 mM) in series [2] (Water, 50° C.).

For the origin of these results see patent US20240139220A1, “TREATMENT OF HPV INFECTION” (priority 2022, published 2024).
